Source: article PMC10859961, “Ir(III) Half-Sandwich Photosensitizers with a π-Expansive Ligand for Efficient Anticancer Photodynamic Therapy” (Journal of Medicinal Chemistry, 2024)
Like-named read-outs stand apart in the source and are kept apart here.

Test system: multicellular A549 tumor spheroids
Experiment: Cytotoxic activity against spheroids (CellTiter-Glo 3D)
Format: cell-based, human
Details: for IC50: 48 h
Experimental: For the evaluation of the cytotoxic activity of complex 6 in 3D cultures, 96-well plates coated with a thin solidified layer of Geltrex reduced growth factor basement membrane matrix (Gibco) were used to form A549 spheroids. A density of 1500 single cells per well was seeded in culture medium supplemented with 2% Geltrex. Treatments with concentrations of complex 6 ranging from 5 to 0.001 μM in culture medium containing 2% Geltrex were performed at day 6. The cells were then kept in the dark or photoactivated with blue light, as described. After 48 h, the treatments were removed, the cells were washed with PBS and cell viability was determined by adding 100 μL of medium and 100 μL of CellTiter-Glo 3D reagent (Promega) to each well. Following the manufacturer’s protocol, the cells were kept in agitation for 5 min and incubated for 25 min at room temperature. Then, the luminescence was determined using a Multiscan Plate Reader (Synergy 4, Biotek, Winooski). The IC50 values were calculated with the Gen5 Data Analysis Software (BioTeck) for two independent experiments, each with duplicate samples. Nontreated cells were used as control.

Cc1c(C)c(C)[c-](C)c1C.F[B-](F)(F)F.c1ccc2cc3nc4c5ccc[n+]6c5c5[c](cccc5c4nc3cc2c1)[Ir]6[n+]1ccn(CCN2CCCCC2)c1 [complex 6, [(η^5-C5Me5) Ir(Imepip)(pbpn)]BF4]
IC50 (blue light photoactivation, read-out: IC50,light): 5 ± 1 nM
IC50 (dark, read-out: IC50,dark): 1200 ± 200 nM
PI (blue light): 240
